Read-outs that look alike come from different tables or passages of the source.

One series has as its target T1, rat MAO-B (Rattus norvegicus, UniProt P19643).
T1 construct: from tissue; host or cells: rat liver mitochondria (male Sprague-Dawley rats)
T1 sequence (P19643 1-520): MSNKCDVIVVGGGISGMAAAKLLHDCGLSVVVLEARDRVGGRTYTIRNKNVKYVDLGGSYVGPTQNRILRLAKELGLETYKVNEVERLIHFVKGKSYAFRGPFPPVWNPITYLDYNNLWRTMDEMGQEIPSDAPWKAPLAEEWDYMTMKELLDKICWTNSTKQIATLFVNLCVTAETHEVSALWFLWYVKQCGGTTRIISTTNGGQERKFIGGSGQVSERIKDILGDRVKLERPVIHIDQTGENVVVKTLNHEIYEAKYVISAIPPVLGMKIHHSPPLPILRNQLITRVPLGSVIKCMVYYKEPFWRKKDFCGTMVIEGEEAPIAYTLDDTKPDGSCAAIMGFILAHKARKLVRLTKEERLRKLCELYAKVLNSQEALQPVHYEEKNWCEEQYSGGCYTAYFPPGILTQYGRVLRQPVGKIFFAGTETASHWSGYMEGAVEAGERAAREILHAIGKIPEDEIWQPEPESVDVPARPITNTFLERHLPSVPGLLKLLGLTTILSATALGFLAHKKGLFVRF
Briefly: Rat MAO-B assay (Amplex Red fluorescence, rat liver mitochondria pre-treated with clorgyline 30 nM). The format is biochemical. The conditions noted are these: rat liver mitochondria pre-treated with clorgyline 30 nM; read-out: rat MAO-B (rat liver mitochondria) IC50.

The target in a further series is T2, rat MAO-A (Rattus norvegicus, UniProt P21396).
T2 construct: from tissue; host or cells: rat liver mitochondria (male Sprague-Dawley rats)
T2 sequence (P21396 1-526): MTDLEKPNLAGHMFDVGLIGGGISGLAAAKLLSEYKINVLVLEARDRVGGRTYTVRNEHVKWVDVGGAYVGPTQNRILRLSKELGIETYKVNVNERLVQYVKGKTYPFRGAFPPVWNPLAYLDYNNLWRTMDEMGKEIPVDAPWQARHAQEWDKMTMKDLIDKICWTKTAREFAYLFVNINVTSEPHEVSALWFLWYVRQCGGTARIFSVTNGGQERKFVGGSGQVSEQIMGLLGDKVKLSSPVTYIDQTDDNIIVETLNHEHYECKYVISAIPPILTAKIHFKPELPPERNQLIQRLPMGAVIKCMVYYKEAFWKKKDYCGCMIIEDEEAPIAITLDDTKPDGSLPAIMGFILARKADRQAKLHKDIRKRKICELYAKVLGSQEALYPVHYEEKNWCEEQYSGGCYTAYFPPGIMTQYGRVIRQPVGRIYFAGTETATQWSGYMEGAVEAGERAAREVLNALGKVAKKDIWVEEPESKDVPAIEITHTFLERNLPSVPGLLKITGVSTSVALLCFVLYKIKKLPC
Briefly: Rat MAO-A assay (Amplex Red fluorescence, rat liver mitochondria pre-treated with deprenyl). The conditions noted are these: for inhibition at 10 µM: read-out: rat MAO-A (rat liver mitochondria) % inhibition at 10 μM. It counts as biochemical.

The target in series [1] is T3, human MAO-B (Homo sapiens, UniProt P27338).
T3 sequence (P27338 1-520): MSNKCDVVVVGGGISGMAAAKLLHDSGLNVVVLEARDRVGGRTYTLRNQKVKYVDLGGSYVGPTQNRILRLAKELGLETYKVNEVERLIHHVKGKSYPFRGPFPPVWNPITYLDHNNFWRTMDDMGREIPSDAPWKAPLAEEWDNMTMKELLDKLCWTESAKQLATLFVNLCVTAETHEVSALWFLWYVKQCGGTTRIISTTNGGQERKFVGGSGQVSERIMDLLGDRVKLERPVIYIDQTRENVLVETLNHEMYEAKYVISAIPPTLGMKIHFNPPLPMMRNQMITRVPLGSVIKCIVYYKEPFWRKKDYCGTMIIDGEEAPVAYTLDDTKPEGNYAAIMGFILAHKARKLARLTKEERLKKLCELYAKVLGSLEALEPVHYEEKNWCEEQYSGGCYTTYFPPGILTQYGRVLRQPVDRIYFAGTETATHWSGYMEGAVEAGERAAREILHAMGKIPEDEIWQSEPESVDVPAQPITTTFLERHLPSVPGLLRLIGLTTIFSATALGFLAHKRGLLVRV
Briefly: Human MAO-B assay (recombinant enzyme, Amplex Red fluorescence). The format is biochemical. On the set-up: purchased Sigma-Aldrich M7441; host or cells: baculovirus-infected insect cells (microsomal product). As to conditions: p-tyramine 150 μM.

A further series addresses T4, human MAO-A (Homo sapiens, UniProt P21397).
T4 sequence (P21397 1-527): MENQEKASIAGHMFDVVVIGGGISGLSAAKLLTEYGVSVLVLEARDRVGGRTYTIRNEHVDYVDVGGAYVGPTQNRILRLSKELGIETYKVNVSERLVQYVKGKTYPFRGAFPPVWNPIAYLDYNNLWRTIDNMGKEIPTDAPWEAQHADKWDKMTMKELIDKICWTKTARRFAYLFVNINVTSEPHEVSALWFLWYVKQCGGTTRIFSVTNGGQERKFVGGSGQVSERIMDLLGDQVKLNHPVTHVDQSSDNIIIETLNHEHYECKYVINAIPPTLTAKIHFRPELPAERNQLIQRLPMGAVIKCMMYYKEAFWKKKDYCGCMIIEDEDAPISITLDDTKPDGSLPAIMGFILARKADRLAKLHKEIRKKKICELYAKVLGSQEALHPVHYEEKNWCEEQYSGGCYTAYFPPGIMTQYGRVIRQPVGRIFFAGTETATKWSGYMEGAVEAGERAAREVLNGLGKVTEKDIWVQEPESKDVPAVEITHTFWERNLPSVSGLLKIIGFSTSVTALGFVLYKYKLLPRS
Briefly: Human MAO-A assay (recombinant enzyme, Amplex Red fluorescence). The conditions noted are these: for inhibition at 10 µM: read-out: human MAO-A % inhibition at 10 μM.

Series [2] deals with T3, human MAO-B. Nature of the series: MAO-B reactivation experiment (time-dependent inhibition, reversibility). As to conditions: compound at IC80; p-tyramine raised from 10 μM to 1.0 mM; monitored 5 hours.
Series [3] concerns the target T3, human MAO-B. Nature of the series: Assay for mode of MAO-B inhibition (substrate-dependent kinetics, Lineweaver-Burk plots). The format is biochemical. On the set-up: purchased Sigma-Aldrich M7441; host or cells: baculovirus-infected insect cells (microsomal product). The conditions noted are these: p-tyramine 0.05-[…]; inhibitor 0.1-10 nM; n=2.
Protocol: The type of MAO-B enzyme inhibition was determined by Michaelis-Menten kinetic experiments and sets of Lineweaver-Burk plots were generated. The reciprocal MAO-B activity was plotted against the reciprocal substrate concentration (n=2). […] The enzymatic reactions and measurements were performed using human MAO-B assay conditions, applied for the determination of IC50 values. The experiment was performed in duplicate.
Series [4] can be described thus: Storage stability (physicochemical properties, Table 1). As to conditions: specified storage temperature (room temperature).
A short description of series [5]: Solubility in organic solvents and in water (physicochemical properties, Table 1). As to conditions: for solubility: water, aqueous buffer.
Where [6] appears, read: rat liver mitochondria, substrate p-tyramine, read-out: rat MAO-A (rat liver mitochondria) IC50.
Where [7] appears, read: read-out: human MAO-A IC50, recombinant human enzyme, p-tyramine 150 μM.

Protocol for rat MAO-A: (§1) Male Sprague-Dawley (Harlan Sprague Dawley, Dublin, Va., US) rats (250-300 g) were sacrificed under light anesthesia and their livers were dissected. […] After homogenization, the volume is adjusted to 100 mL with the same buffer. After a low speed centrifugation (10 min at 600 g; 4° C.), the supernatant is further centrifuged at 15,000 rpm for 5 min at +4° C. The resulting pellet was resuspended in 2.0 mL of a 50 mM sodium/phosphate buffer (pH 7.4) and stored at −80° C. in aliquots of 1.0 mL each until further use.
(§2) The Amplex® Red reagent was prepared as recommended in the kit from Invitrogen (A12214). […] Clorgyline (1.0 μM) from Sigma Aldrich (M3778) was used to determine non-MAO-A enzyme activity and concentration-response curves of clorgyline serve as positive control.
Protocol for rat MAO-B: as §1, §2

Turning to `COc1ccc(NC(=O)c2ccc3[nH]ncc3c2)cc1Cl` [Example 3, N-(3-chloro-4-methoxy)-1H-indazole-5-carboxamide], the melting point (as a rule, the temperature, or range, at which the solid turns liquid) fell in the range of 276.2 to 277.8 °C. For the same compound, on rat MAO-B, the IC50 (in general, the concentration at which inhibition is half-maximal) was 21.9 ± 3.4 nM. Also, the IC50 on rat MAO-A (setting [6]) is greater than 10000 nM. For the same compound, at rat MAO-A (rat liver mitochondria), the inhibition – broadly, the relative decrease from the control value, in per cent – at 10 µM turned out to be 13%. For the same compound, the IC50 at human MAO-B [1] was found to be 3.42 ± 0.28 nM. On human MAO-A, the IC50 is greater than 10000 nM and the inhibition at 10 µM amounted to 30%.
In turn, `COc1cc(NC(=O)c2ccc3[nH]ncc3c2)ccc1Cl` [Example 4, N-(4-chloro-3-methoxy)-1H-indazole-5-carboxamide] registered a melting point of 279.6 to 281.6 °C. The IC50 at rat MAO-B was 43.1 ± 4.2 nM. On rat MAO-A (setting [6]), the IC50 is greater than 10000 nM. The inhibition at 10 µM on rat MAO-A (rat liver mitochondria) was determined as 24%. For the same compound, the IC50 at human MAO-B [1] came to 4.36 ± 0.08 nM. For the same compound, on human MAO-A, the inhibition at 10 µM was 62%. For the same compound, the IC50 at human MAO-A (setting [7]) is 8790 ± 200 nM.
The compound `O=C(Nc1ccc(O)c(Cl)c1)c1ccc2[nH]ncc2c1` [Example 5, N-(3-chloro-4-hydroxyphenyl)-1H-indazole-5-carboxamide] registered a melting point of 272.2 to 273.4 °C. In addition, the concentration for half-maximal inhibition (IC50) at rat MAO-B turned out to be 941 ± 51 nM. For the same compound, the IC50 on rat MAO-A (setting [6]) is less than 10000 nM. Further, the inhibition at 10 µM at rat MAO-A (rat liver mitochondria) amounted to 60%. Moreover, at human MAO-B [1], the IC50 was found to be 123 ± 16 nM. Besides, on human MAO-A, the IC50 was greater than 10000 nM and the inhibition at 10 µM is 33%.
With `O=C(Nc1ccc(Cl)c(O)c1)c1ccc2[nH]ncc2c1` [Example 6, N-(4-chloro-3-hydroxyphenyl)-1H-indazole-5-carboxamide], the melting point was 306.6 to 307.3 °C. Besides, the IC50 on rat MAO-B worked out at 385 ± 9 nM. Besides, the IC50 on rat MAO-A (setting [6]) was greater than 10000 nM. Further, the inhibition at 10 µM on rat MAO-A (rat liver mitochondria) came to 43%. Besides, on human MAO-B [1], the IC50 was found to be 37.5 ± 7.3 nM. For the same compound, at human MAO-A, the inhibition at 10 µM was 81%. In addition, the IC50 on human MAO-A (setting [7]) was 3000 ± 122 nM.
`COc1ccc(NC(=O)c2ccc3[nH]ncc3c2)cc1OC` [Example 7, N-(3,4-dimethoxyphenyl)-1H-indazole-5-carboxamide]: the melting point lay within 258.3 to 261.3 °C. Moreover, on rat MAO-B, the IC50 is 1400 ± 56 nM. Further, the IC50 at rat MAO-A (setting [6]) is greater than 10000 nM. In addition, at rat MAO-A (rat liver mitochondria), the inhibition at 10 µM stood at 9%. Moreover, the IC50 on human MAO-B [1] turned out to be 185 ± 21 nM. Besides, on human MAO-A, the IC50 was greater than 10000 nM and the inhibition at 10 µM was determined as 9%.
Take `Cn1ncc2cc(C(=O)Nc3ccc(Cl)c(Cl)c3)ccc21` [Example 13]: the “reversibility of MAO-B inhibition (enzyme reactivation after raising substrate)” value at human MAO-B [2] is given as “reversible MAO-B inhibitors”. The IC50 was 1.32 ± 0.09 nM on rat MAO-B and greater than 10000 nM at rat MAO-A. Moreover, the inhibition at 10 µM at rat MAO-A (rat liver mitochondria) worked out at 42%; at human MAO-A, 37%. The “mode of MAO-B inhibition (Lineweaver-Burk plots)” value at human MAO-B [3] was “linear and intersected at the y-axis with the plot for the uninhibited enzyme”. The Stability result in [4] was “Stable under specified storage temperature (room”. Further, in series [5] (hot water), the “Solubility in water” value was “Very slightly soluble in hot water”. Further, the Solubilty inorganic solvents result in series [5] (in DMSO, DMF, MeOH, EtOH, i-PrOH, n-BuOH, t-BuOH, acetonitrile (Soluble)) is on record as “Soluble (0.01-0.03 mL per 1.0 mg) in DMSO, DMF,”; in series [5] (in petroleum ether, Et2O and n-hexane (Insoluble)), “Insoluble (>10 mL per 1.0 mg) in petroleum ether,”. Besides, the solubility (commonly the dissolved amount per volume that the medium holds) in [5] (at 22.5° C., pH 7.4) was less than 0.01 µg/mL; in [5] (at 90° C., pH 7.4, pH 1.0), less than 0.035 µg/mL.
In the case of `C[C@H](NCc1ccc(OCc2cccc(F)c2)cc1)C(N)=O` [safinamide, reference compound], the “reversibility of MAO-B inhibition (enzyme reactivation after raising substrate)” value at human MAO-B [2] is “The same result was observed”.

The record behind these values is patent US9643930B2, “Substituted indazole derivatives as in vitro MAO-B inhibitors” (“NTZ LAB” LTD., priority 2013, dated 2017).
